Assay results: paper PMC10045663, “Synthesis, In Vitro Biological Evaluation of Antiproliferative and Neuroprotective Effects and In Silico Studies of Novel 16E-Arylidene-5α,6α-epoxyepiandrosterone Derivatives” (Biomedicines, 2023)

Legend:
[1] = system: LNCaP cells (androgen-dependent prostatic cancer); test: MTT cell proliferation assay, LNCaP cells; type: cell-based; conditions: 72 h; for effect on LNCaP cell proliferation: 10 µM; for decrease in LNCaP cell proliferation: 50 µM; for IC50: MTT, tumoral cells, read-out: Estimated IC50, LNCaP
Procedure: (§1) LNCaP, PC-3, MCF-7, PNT1A, N27, and NHDF cells were obtained from the American Type Culture Collection (ATCC; Manassas, VA, USA) and were cultured in 75 cm^2 culture flasks at 37 °C in a humidified air incubator with 5% CO2. LNCaP, PC-3, PNT1A, and N27 cells, respectively, were cultured in RPMI 1640 medium (Sigma-Aldrich, Inc. St. Louis, MO, USA) with 10% fetal bovine serum (FBS; Sigma-Aldrich, Inc. St. Louis, MO, USA) and 1% of the antibiotic mixture of 10,000 U/mL penicillin G and […] streptomycin (Sp, Sigma-Aldrich, Inc. St. Louis, MO, USA). MCF-7 cells were cultured in DMEM medium (Sigma-Aldrich, Inc. St. Louis, MO, USA) supplemented with 10% fetal bovine serum (FBS; Sigma-Aldrich, Inc. St. Louis, MO, USA) and 1% antibiotic/antimycotic (10,000 U/mL penicillin G, […] streptomycin, and 25 µg/mL amphotericin B: Ab, Sigma-Aldrich, Inc. St. Louis, MO, USA). Finally, NHDF cells were cultured in RPMI 1640 medium supplemented with 10% FBS, 2 mM L-glutamine, 10 mM HEPES, 1 mM sodium pyruvate, and 1% of the antibiotic/antimycotic Ab, and these cells were used in passages 10th to 14th. For all cell types, the medium was renewed every 2 days until cells nearly reached the confluence state. When cells reach approximately 90–95% confluence, they are gently detached by trypsinization (trypsin-EDTA solution: 0.125 g/L of trypsin and 0.02 g/L of EDTA). Before each experiment, viable cells were counted in a Neubauer chamber by a trypan-blue exclusion assay and adequately diluted in the appropriate complete cell culture medium.
(§2) All tested compounds were dissolved in dimethyl sulfoxide (DMSO; Sigma-Aldrich, Inc. St. Louis, MO, USA) at a concentration of 10 mM and stored at 4 °C. From the mother-solutions, the diluted solutions of the compounds, in different concentrations, were prepared in the respective complete culture medium before each experiment.
(§3) After reaching a confluence state, cells were trypsinized and counted by the trypan-blue exclusion assay and then seeded with an initial density of 2 × 10^4 cells/mL in 96-well culture plates (Nunc, Apogent, Denmark) and left to adhere and grow for 48 h. Subsequently, the medium was removed, and the cells were treated with compound solutions (10 and 50 µM for preliminary studies and 0.01, 0.1, 1, 10, 50, and 100 µM for concentration-response studies) in complete culture medium for 72 h. 5-Fluorouracil (5-FU) was used as a positive control, and untreated cells were used as the negative control. Compounds leading to cell proliferation relative to control clearly below 50%, at 10 µM, or clearly below 25%, at 50 µM, in the screening studies were selected to concentration-response studies in tumoral cell lines. Each experiment was performed in quadruplicate and independently at least two times. The in vitro antiproliferative effects were evaluated by the MTT assay (Sigma-Aldrich, Inc. St. Louis, MO, USA). After the incubation period, the medium was removed, and 100 µL of phosphate buffer saline (PBS, NaCl 137 mM; KCl 2.7 mM; Na2HPO4 10 mM; and KH2PO4 1.8 mM in deionized water with a pH adjusted to 7.4) were used to wash the cells. Then, 100 µL of the MTT solution (5 mg/mL) was prepared in the appropriate serum-free medium and added to each well, followed by incubation for 4 h at 37 °C. Hereafter, the MTT containing medium was removed, and the formazan crystals were dissolved in DMSO. Then, the absorbance was measured at 570 nm using a xMarkTM microplate spectrophotometer from BIO-RAD Laboratories. Cell viability values were expressed as percentages relative to the negative control.

[2] = system: all cell lines (NHDF, PNT1A, N27, LNCaP, PC-3, MCF-7); test: MTT preliminary screening, all cell lines taken together; type: cell-based; conditions: 50 µM, 72 h
Procedure: as §1, §2, §3

[3] = system: PNT1A (normal prostate cells); test: MTT cell proliferation assay, PNT1A cells; type: cell-based; conditions: 72 h, non-tumoral cells, read-out: Estimated IC50, PNT1A
Procedure: as §1, §2, §3

[4] = system: MCF-7 cells (estrogen-responsive breast cancer cells); test: MTT cell proliferation assay, MCF-7 cells; type: cell-based; conditions: 72 h; for IC50: MTT, tumoral cells, read-out: Estimated IC50, MCF-7
Procedure: as §1, §2, §3

[5] = system: N27 (rat dopaminergic neuronal cells); test: MTT cell proliferation assay, N27 cells; type: cell-based; conditions: 72 h, non-tumoral cells, read-out: Estimated IC50, N27
Procedure: as §1, §2, §3

[6] = system: NHDF cells (normal human dermal fibroblasts); test: MTT cell proliferation assay, NHDF cells; type: cell-based; conditions: 72 h, non-tumoral cells, read-out: Estimated IC50, NHDF
Procedure: as §1, §2, §3

[7] = system: PC-3 cells (androgen-independent prostatic cancer); test: MTT cell proliferation assay, PC-3 cells; type: cell-based; conditions: 72 h; for IC50: MTT, tumoral cells, read-out: Estimated IC50, PC-3; for decrease on cell proliferation relative to the control: PC-3, 50 µM
Procedure: as §1, §2, §3

N27 cells [8] = test: Neuroprotection against 6-OHDA-induced toxicity (MTT); type: cell-based, rat; conditions: 10 and 50 µM together with 50 µM 6-OHDA, 24 h
Procedure: (§4) The immortalized rat mesencephalic dopaminergic cell line (N27 cells; a kind gift from Dr. Yoon-Seong Kim, Burnett School of Biomedical Sciences, University of Central Florida) was grown in Roswell Park Memorial Institute (RPMI) 1640 medium (Sigma-Aldrich) containing 2 g/L sodium bicarbonate, 10% fetal bovine serum (FBS; Millipore), and 1 mL/L of penicillin/streptomycin (GIBCO) in a humidified atmosphere of 5% CO2 at 37 °C. Cells were plated at a density of 0.31 × 10^5 cells per cm^2 in 96-well culture plates. In the MTT assay, N27 cells were incubated in the presence of several compounds with 50 μM of 6-OHDA. To assess cell viability, MTT reduction was performed as previously described (Section 2.3) with some modifications. Briefly, after 24 h of cell treatments, 0.5 mg/mL of MTT was added to cells for 4 h at 37 °C. Then, the resultant precipitate was dissolved in 10% SDS and quantified at a wavelength of 570 nm.

N27 cells [9] = test: N27 cell viability after 24 h (MTT), substance alone; type: cell-based, rat
Procedure: as §4, with “In the MTT assay, N27 cells were incubated in the presence of several compounds with 50 μM of 6-OHDA.” left out

In the case of “(E)-16-(2,4-Dichlorobenzylidene)-3-hydroxy-5α ,6α -epoxy-10,13-dimethyl-1,3,4,7,8,9,10,11,12,13,15,16-dodecahydro-2H-cyclopenta[α ]phenanthren-17(14H)-one [Compound 22]”, the “effect on LNCaP cell proliferation” value [1] is reported as “no relevant effects”, the “decrease in LNCaP cell proliferation” value [1] is reported as “higher than 75%” and the IC50 [1] is reported as 15 µM. The relative cell proliferation [2] was ≤ 50%, the IC50 [3] was 14.4 µM and the “cell proliferation relative to the control” value ([4]; MCF-7, 50 µM) was ~0%. The IC50 [4] was 14.5 µM, the IC50 [5] was 16.8 µM and the IC50 [6] was 15 µM. The IC50 [7] was 44.5 µM and the “decrease on cell proliferation relative to the control” value [7] was “higher than 75%”.
In the case of CC12CCC3C(CC4OC45CC(O)CCC35C)C1CC(=Cc1ccc(Br)cc1)C2=O (stereo not drawn) [Compound 25, (E)-16-(4-Bromobenzylidene)-3-hydroxy-5α ,6α -epoxy-10,13-dimethyl-1,3,4,7,8,9,10,11,12,13,15,16-dodecahydro-2H-cyclopenta[α ]phenanthren-17(14H)-one], the “effect on LNCaP cell proliferation” value [1] is reported as “no relevant effects”, the “decrease in LNCaP cell proliferation” value [1] is reported as “higher than 75%” and the IC50 [1] is reported as 36.9 µM. For the same compound, the relative cell proliferation [2] was ≤ 50%, the IC50 [3] was 15.3 µM and the IC50 [4] was 14.5 µM. The IC50 [5] was 15.4 µM, the IC50 [6] was 16 µM and the IC50 [7] was 14.5 µM. For the same compound, the “decrease on cell proliferation relative to the control” value [7] was “higher than 75%”.
For “(E)-16-[(5-Chlorothiophen-2-yl)methylene]-3-hydroxy-5α ,6α -epoxy-10,13-dimethyl-1,3,4,7,8,9,10,11,12,13,15,16-dodecahydro-2H-cyclopenta[α ]phenanthren-17(14H)-one [Compound 26]”, the “effect on LNCaP cell proliferation” value [1] was “no relevant effects”, the “decrease in LNCaP cell proliferation” value [1] was “higher than 75%” and the IC50 [1] was 11.3 µM. The relative cell proliferation [2] was ≤ 50%, the IC50 [3] was 15.6 µM and the IC50 [4] was 21.8 µM. The IC50 [5] was 14.3 µM, the IC50 [6] was 16.6 µM and the IC50 [7] was 43.8 µM. For the same compound, the “decrease on cell proliferation relative to the control” value [7] was “higher than 75%”.
For Cc1ccc(C=C2CC3C4CC5OC56CC(O)CCC6(C)C4CCC3(C)C2=O)cc1 (stereo not drawn) [Compound 23, (E)-16-(4-Methylbenzylidene)-3-hydroxy-5α ,6α -epoxy-10,13-dimethyl-1,3,4,7,8,9,10,11,12,13,15,16-dodecahydro-2H-cyclopenta[α ]phenanthren-17(14H)-one], the “effect on LNCaP cell proliferation” value [1] was “no relevant effects”, the “decrease in LNCaP cell proliferation” value [1] was “higher than 75%” and the IC50 [1] was 19.3 µM. The relative cell proliferation [2] was ≤ 50%, the IC50 [3] was 13.3 µM and the IC50 [4] was 18.7 µM. The IC50 [5] was 12.7 µM, the IC50 [6] was 28.3 µM and the IC50 [7] was 14 µM.
With C[C@]12CC[C@H]3[C@@H](C[C@@H]4O[C@@]45CC(O)CC[C@]35C)[C@@H]1C/C(=C\c1cccc(F)c1F)C2=O (stereo partly drawn) [Compound 24, (E)-16-(2,3-Difluorobenzylidene)-3-hydroxy-5α ,6α -epoxy-10,13-dimethyl-1,3,4,7,8,9,10,11,12,13,15,16-dodecahydro-2H-cyclopenta[α ]phenanthren-17(14H)-one] the IC50 [3] was 56.5 µM, the IC50 [5] was 18.9 µM and the IC50 [6] was 33.4 µM.
CC12CCC3C(CC4OC45CC(O)CCC35C)C1CCC2C(=O)C=Cc1ccccc1 (stereo not drawn) [cD, 21E-benzylidene-5α,6α-epoxipregnenolone, reference compound] was tested, and the “protection against 6-OHDA-induced neurotoxicity” value (N27 cells [8]) was “did not protect” and the “effect on N27 cell viability” value (N27 cells [9]; 10 µM alone) was “did not affect cell viability”.
CC12CCC3C(CC4OC45CC(O)CCC35C)C1CC(=Cc1cccs1)C2=O (stereo not drawn) [Compound 18, (E)-16-(Thiophen-2-ylmethylene)-3-hydroxy-5α ,6α -epoxy-10,13-dimethyl-1,3,4,7,8,9,10,11,12,13,15,16-dodecahydro-2H-cyclopenta[α ]phenanthren-17(14H)-one] was tested, and the IC50 [3] was 29.6 µM, the IC50 [5] was 12.6 µM and the IC50 [6] was 29.7 µM. For the same compound, the IC50 [7] was 37.6 µM.
In the case of NCCc1cc(O)c(O)cc1O [Compound 6-OHDA, 6-hydroxydopamine, reference compound], the “reduction in cell viability compared to the control” value (N27 cells [9]; 50 μM) is reported as ~50%.
COc1ccc(C=C2CC3C4CC5OC56CC(O)CCC6(C)C4CCC3(C)C2=O)cc1 (stereo not drawn) [Compound 16, (E)-16-(4-Metoxybenzylidene)-3-hydroxy-5α ,6α -epoxy-10,13-dimethyl-1,3,4,7,8,9,10,11,12,13,15,16-dodecahydro-2H-cyclopenta[α ]phenanthren-17(14H)-one] gave an IC50 [3] of 54.5 µM, an IC50 [5] of 33.2 µM and an IC50 [6] of 39.3 µM. It also gave an IC50 [7] of 20.1 µM.
Cc1ccc(/C=C2\C[C@H]3[C@@H]4C[C@@H]5O[C@@]56CC(O)CC[C@]6(C)[C@H]4CC[C@]3(C)C2=O)o1 (stereo partly drawn) [Compound 21, (E)-16-[(5-Methylfuran-2-yl)methylene]-3-hydroxy-5α ,6α -epoxy-10,13-dimethyl-1,3,4,7,8,9,10,11,12,13,15,16-dodecahydro-2H-cyclopenta[α ]phenanthren-17(14H)-one] gave an IC50 [3] of 46.3 µM, an IC50 [5] of 13.2 µM and an IC50 [6] of 23.4 µM.
“(E)-16-Benzylidene-3-hydroxy-5α,6α-epoxy-10,13-dimethyl-1,3,4,7,8,9,10,11,12,13,15,16-dodecahydro-2H-cyclopenta[α]phenanthrene-17(14H)-one [Compound 15]” was tested, and the IC50 [1] was 27.4 µM, the relative cell proliferation [2] was ≤ 50% and the IC50 [3] was 33.1 µM. The IC50 [4] was 42.7 µM, the IC50 [5] was 9.21 µM and the IC50 [6] was 39.5 µM. For the same compound, the IC50 [7] was 17 µM and the “decrease on cell proliferation relative to the control” value [7] was “higher than 75%”.
